These results are taken from US7902181B2, “Compounds 010” (AstraZeneca AB, priority 2007, dated 2011).

Counter-ions that a name gives are not always drawn.

Chain of Recombinant Human (rh) DPP1 (P53634 25-463): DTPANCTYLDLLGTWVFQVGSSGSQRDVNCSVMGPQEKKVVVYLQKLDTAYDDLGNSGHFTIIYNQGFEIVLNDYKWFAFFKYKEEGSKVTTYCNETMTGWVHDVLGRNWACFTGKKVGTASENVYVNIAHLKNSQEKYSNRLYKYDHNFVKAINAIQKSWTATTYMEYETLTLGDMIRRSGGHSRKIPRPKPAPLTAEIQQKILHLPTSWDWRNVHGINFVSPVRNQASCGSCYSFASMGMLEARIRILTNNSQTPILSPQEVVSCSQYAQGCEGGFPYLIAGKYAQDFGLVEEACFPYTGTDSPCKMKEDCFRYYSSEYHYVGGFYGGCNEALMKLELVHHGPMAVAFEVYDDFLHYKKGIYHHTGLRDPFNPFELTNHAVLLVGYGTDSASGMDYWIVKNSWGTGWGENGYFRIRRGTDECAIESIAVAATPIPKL

In this experiment the target is Recombinant Human (rh) DPP1 (Homo sapiens, UniProt P53634). As to the kind of experiment: Fluorescence Assay for Recombinant Human (rh) DPP1. The experiment is classed as biochemical. Particulars: rhDPP1; substrate H-Gly-Arg-AMC; pH5.0; 30 min pre-incubation, 60 min reaction at 22° C.; highest concentration 10 μM; read-out: DPP1 activity, pIC50 (converted). The procedure:
Fluorescence Assay for Recombinant Human (rh) DPP1
The activity of DPP1 was determined by measuring the enzymatic release of aminomethyl coumarin (AMC) from the peptide substrate (H-Gly-Arg-AMC), which leads to an increase in fluorescence intensity at λex=350 nm and λem=450 nm. The assay was carried out in black 384 well plates in a final volume of 50 μl at 22° C. The assay conditions contained the following: 25 mM piperazine buffer pH5.0; 50 mM NaCl, 5 mM DTT; 0.01% (v/v) Triton X-100; 100 μM H-Gly-Arg-AMC and rhDPP1 ([…]). Potential inhibitors were made up in DMSO and then diluted in the assay to give a final concentration of 1% (v/v) DMSO. A 12-point half-log dilution of the inhibitors (highest concentration 10 μM) was tested and the pIC50 determined using a 4-parameter logistic equation in a non-linear curve fitting routine. A standard DPP1 inhibitor (vinyl sulfone, see below) was used as a positive control in the assay. Routinely, inhibitors were pre-incubated with rhDPP1 for 30 min prior to the addition of the peptide substrate to start the reaction for a further 60 min at 22° C. After that the plates were immediately read in a fluorescence plate reader using the above emission and excitation wavelengths [modified from Kam, C M, Gotz, M G, Koot, G, McGuire, M J, Thiele, D L, Hudig, D & Powers, J C (2004). Arch Biochem Biophys, 427, 123-134 & McGuire, M J, Lipsky, P E & Thiele, D L (1992). Arch Biochem Biophys, 295, 280-288].
Regarding `CN1Cc2cc(-c3ccc(C[C@@H](C#N)NC(=O)[C@@H]4CCCCN4)cc3)ccc2S1(=O)=O` [Example 69], the IC50 is 12.6 nM.

Consider `Cc1nccn1-c1cc(-c2ccc(C[C@@H](C#N)NC(=O)[C@@H]3CCCCN3)cc2)ccc1C#N` [Example 62, (2S)-N-((1S)-1-Cyano-2-(4′-cyano-3′-(2-methyl-1H-imidazol-1-yl)biphenyl-4-yl)ethyl)piperidine-2-carboxamide], for which the IC50 is 15.8 nM.

Turning to `CCS(=O)(=O)c1ccc(-c2ccc(C[C@@H](C#N)NC(=O)[C@@H]3CCCCN3)cc2)c(C)c1` [Example 43, (2S)-N-[(1S)-1-Cyano-2-[4-(4-ethylsulfonyl-2-methyl-phenyl)phenyl]ethyl]pipe-ridine-2-carboxamide trifluoroacetate], the IC50 was 631 nM.

As for `N#C[C@H](Cc1ccc(-c2ccc3sc(=O)n(CCO)c3c2)cc1)NC(=O)[C@@H]1CCCCN1` [Example 54, (S)-N-((S)-1-Cyano-2-(4-(3-(2-hydroxyethyl)-2-oxo-2,3-dihydrobenzo[d]thiazol-5-yl)phenyl)ethyl)piperidine-2-carboxamide], the IC50 is 5.01 nM.

With `CN1CCN(S(=O)(=O)c2ccc(-c3ccc(C[C@@H](C#N)NC(=O)[C@@H]4CCCCN4)cc3)cc2)CC1` [Example 95, (S)-N-((S)-1-Cyano-2-(4′-(4-methylpiperazin-1-ylsulfonyl)biphenyl-4-yl)ethyl)piperidine-2-carboxamide Trifluoroacetate], the IC50 is 3.16 nM.

For the compound `CCCOc1ccc(-c2ccc(C[C@@H](C#N)NC(=O)[C@@H]3CCCCN3)cc2)cc1F` [Example 39, (2S)-N-[(1S)-1-Cyano-2-[4-(3-fluoro-4-propoxy-phenyl)phenyl]ethyl]pipe-ridine-2-carboxamide trifluoroacetate], the IC50 is 316 nM.

With `N#C[C@H](Cc1ccc(-c2cccc(CN3CCOCC3)c2)cc1)NC(=O)[C@@H]1CCCCN1` [Example 109, (S)-N-((S)-1-Cyano-2-(3′-(morpholinomethyl)biphenyl-4-yl)ethyl)piperidine-2-carboxamide Ditrifluoroacetate], the IC50 was 158 nM.

Turning to `N#Cc1ccc(-c2ccc([C@H]3C[C@@]3(C#N)NC(=O)[C@@H]3CCCCN3)cc2)cc1` [Example 103, (S)-N-((1R,2R)-1-Cyano-2-(4′-cyanobiphenyl-4-yl)cyclopropyl)piperidine-2-carboxamide Trifluoroacetate], the IC50 was 158 nM.

Turning to `COc1ccc(-c2ccc(C[C@@H](C#N)NC(=O)[C@@H]3CCCCN3)cc2)cc1OC` [Example 32, (2S)-N-[(1S)-1-Cyano-2-[4-(3,4-dimethoxyphenyl)phenyl]ethyl]piperidine-2-carboxamide trifluoroacetate], the IC50 was 158 nM.

For `N#Cc1cccc(-c2ccc(C[C@@H](C#N)NC(=O)[C@@H]3CCCCN3)cc2)c1` [Example 6, (S)-N-((S)-1-Cyano-2-(3′-cyanobiphenyl-4-yl)ethyl)piperidine-2-carboxamide Trifluoroacetate], the IC50 was 63.1 nM.

In the case of `N#C[C@H](Cc1ccc(-c2ccc(OC(F)(F)F)cc2)cc1)NC(=O)[C@@H]1CCCCN1` [Example 105, (S)-N-((S)-1-Cyano-2-(4′-(trifluoromethoxy)biphenyl-4-yl)ethyl)piperidine-2-carboxamide], the IC50 is 20 nM.

In the case of `Cc1cscc1-c1ccc(C[C@@H](C#N)NC(=O)[C@@H]2CCCCN2)cc1` [Example 38, (2S)-N-[(1S)-1-Cyano-2-[4-(4-methylthiophen-3-yl)phenyl]ethyl]piperidine-2-carboxamide trifluoroacetate], the IC50 is 316 nM.

Take `N#Cc1cccc(-c2ccc(C[C@@H](C#N)NC(=O)[C@@H]3CCCCN3)cn2)c1` [Example 78, (S)-N-((S)-1-Cyano-2-(6-(3-cyanophenyl)pyridin-3-yl)ethyl)piperidine-2-carboxamide Trifluoroacetate]: the IC50 was 100 nM.

For `CCS(=O)(=O)c1cc(-c2ccc(C[C@@H](C#N)NC(=O)[C@@H]3CCCCN3)cc2)ccc1C#N` [Example 59, (S)-N-((S)-1-Cyano-2-(4′-cyano-3′-(ethylsulfonyl)biphenyl-4-yl)ethyl)piperidine-2-carboxamide], the IC50 is 15.8 nM.

Take `N#C[C@H](Cc1ccc(-c2cccc(Cl)c2)cc1)NC(=O)[C@@H]1CCCCN1` [Example 1, (S)-N-((S)-2-(3′-Chlorobiphenyl-4-yl)-1-cyanoethyl)piperidine-2-carboxamide Trifluoroacetate]: the IC50 was 63.1 nM.

Take `N#C[C@H](Cc1ccc(-c2ccc(C(F)(F)F)cc2)cc1)NC(=O)[C@@H]1CCCCN1` [Example 82, (S)-N-((S)-1-Cyano-2-(4′-(trifluoromethyl)biphenyl-4-yl)ethyl)piperidine-2-carboxamide Trifluoroacetate]: the IC50 was 5.01 nM.

For the compound `CN1CCN(c2ccc(-c3ccc(C[C@@H](C#N)NC(=O)[C@@H]4CCCCN4)cc3)cn2)CC1` [Example 47, (2S)-N-[(1S)-1-Cyano-2-[4-[6-(4-methylpiperazin-1-yl)pyridin-3-yl]phenyl]ethyl]piperidine-2-carboxamide trifluoroacetate], the IC50 was 1260 nM.

Regarding `COc1ccc(-c2ccc(C[C@@H](C#N)NC(=O)[C@@H]3CCCCN3)cc2)c(OC)c1` [Example 33, (2S)-N-[(1S)-1-Cyano-2-[4-(2,4-dimethoxyphenyl)phenyl]ethyl]piperidine-2-carboxamide trifluoroacetate], the IC50 is 200 nM.

Turning to `CSc1cc(-c2ccc(C[C@@H](C#N)NC(=O)[C@@H]3CCCCN3)cc2)ccc1C#N` [Example 57, (S)-N-((S)-1-Cyano-2-(4′-cyano-3′-(methylthio)biphenyl-4-yl)ethyl)-piperidine-2-carboxamide], the IC50 was 3.16 nM.

On to `CN(C)S(=O)(=O)c1ccc(-c2ccc(C[C@@H](C#N)NC(=O)[C@@H]3CCCCN3)cn2)cc1` [Example 80, (S)-N-((S)-1-Cyano-2-(6-(4-(N,N-dimethylsulfamoyl)phenyl)pyridin-3-yl)ethyl)piperidine-2-carboxamide Trifluoroacetate], for which the IC50 is 31.6 nM.

Take `N#C[C@H](Cc1ccc(-c2cccc(CC(N)=O)c2)cc1)NC(=O)[C@@H]1CCCCN1` [Example 86, (S)-N-((S)-2-(3′-(2-amino-2-oxoethyl)biphenyl-4-yl)-1-cyanoethyl)piperidine-2-carboxamide Trifluoroacetate]: the IC50 was 79.4 nM.

On to `N#C[C@H](Cc1ccc(-c2ccc3c(c2)CCNC3)cc1)NC(=O)[C@@H]1CCCCN1` [Example 110, (S)-N-((S)-1-Cyano-2-(4-(1,2,3,4-tetrahydroisoquinolin-6-yl)phenyl)ethyl)piperidine-2-carboxamide Ditrifluoroacetate], for which the IC50 was 158 nM.

As for `N#C[C@H](Cc1ccc(-c2cccc(CO)c2)cc1)NC(=O)[C@@H]1CCCCN1` [Example 45, (2S)-N-[(1S)-1-Cyano-2-[4-[3-(hydroxymethyl)phenyl]phenyl]ethyl]piperidine-2-carboxamide trifluoroacetate], the IC50 is 794 nM.

Consider `CNS(=O)(=O)c1ccc(-c2ccc(C[C@@H](C#N)NC(=O)[C@@H]3CCCCN3)cc2)cc1` [Example 71, (S)-N-((S)-1-Cyano-2-(4′-(N-methylsulfamoyl)biphenyl-4-yl)ethyl)piperidine-2-carboxamide Trifluoroacetate], for which the IC50 is 6.31 nM.

Take `N#C[C@H](Cc1ccc(-c2ccc(F)c(F)c2)cc1)NC(=O)[C@@H]1CCCCN1` [Example 29, (2S)-N-[(1S)-1-Cyano-2-[4-(3,4-difluorophenyl)phenyl]ethyl]piperidine-2-carboxamide trifluoroacetate]: the IC50 was 100 nM.

Regarding `CSc1ccc(-c2ccc(C[C@@H](C#N)NC(=O)[C@@H]3CCCCN3)cc2)cc1C#N` [Example 63, (S)-N-((S)-1-cyano-2-(3′-cyano-4′-(methylthio)biphenyl-4-yl)ethyl)piperidine-2-carboxamide], the IC50 is 7.94 nM.

For `N#Cc1ccc(-c2cccc(C[C@@H](C#N)NC(=O)[C@@H]3CCCCN3)c2)cc1` [Example 100, (S)-N-((S)-1-Cyano-2-(4′-cyanobiphenyl-3-yl)ethyl)piperidine-2-carboxamide Trifluoroacetate], the IC50 was 1000 nM.

Turning to `N#C[C@H](Cc1ccc(-c2ccc(CCCO)cc2)cc1)NC(=O)[C@@H]1CCCCN1` [Example 27, (2S)-N-[(1S)-1-Cyano-2-[4-[4-(3-hydroxypropyl)phenyl]phenyl]ethyl]piperidine-2-carboxamide trifluoroacetate], the IC50 is 63.1 nM.

On to `CN(C)S(=O)(=O)c1cccc(-c2ccc(C[C@@H](C#N)NC(=O)[C@@H]3CCCCN3)cc2)c1` [Example 87, (S)-N-((S)-1-Cyano-2-(3′-(N,N-dimethylsulfamoyl)biphenyl-4-yl)ethyl)piperidine-2-carboxamide Trifluoroacetate], for which the IC50 was 50.1 nM.

As to `N#C[C@H](Cc1ccc(-c2ccccc2O)cc1)NC(=O)[C@@H]1CCCCN1` [Example 48, (2S)-N-[(1S)-1-Cyano-2-[4-(2-hydroxyphenyl)phenyl]ethyl]piperidine-2-carboxamide trifluoroacetate], the IC50 is 1580 nM.
